Measured values from article PMC3172881 (Cancer cell, 2011).
pEC50: −log10 of the molar value.

Key:
[1] = test system: mEP^Ephb2 cells; assay: HTS activity against ependymoma cells; format: cell-based, mouse; conditions: result in words
[2] = test system: mEP^Ephb2-LUC brain tumors; assay: Orthotopic allograft efficacy study, bioluminescence and survival; format: in vivo, mouse; conditions: for survival of mice harbouring mEP^Ephb2-LUC tumors / rate of mEP^Ephb2-LUC tumor growth: 5-FU 75 mg/kg i.v. once weekly, bortezomib 0.8 mg/kg i.v. twice weekly; for rate of mEP^Ephb2-LUC tumor growth: bioluminescence
[3] = test system: subventricular zone (SVZ) of Prom1^+/C-L mice; assay: In vivo NSC toxicity: ApoTag, DCX and LacZ; conditions: for number of Prom1^+ cells in the SVZ / number of apoptotic cells in the SVZ: ±SEM; for number of apoptotic cells in the SVZ: ApoTag
[4] = test system: mEP^Ephb2, mBT^NICD1, NSC^wt and NSC^null cells; format: cell-based, mouse; conditions: for cell-selective activity class in HTS: class from average EC50 in each of four cell types, secondary screen
[5] = test system: IGF1R; assay: Western blot of IGF1R signalling in mEP^Ephb2 cells stimulated with IGF2; format: cell-based, mouse
[6] = 5-FU pharmacokinetics, tumor microdialysis and plasma; format: in vivo, mouse
[7] = Tolerability of 5-FU infusion via Alzet pumps; format: in vivo, mouse; conditions: 13 mg/kg/hour via Alzet pumps; unacceptably toxic

CC(C)C[C@H](NC(=O)[C@H](Cc1ccccc1)NC(=O)c1cnccn1)B(O)O [bortezomib]
activity against mEP^Ephb2 cells in HTS [1]: highly potent
survival of mice harbouring mEP^Ephb2-LUC tumors [2]: significantly prolonged
rate of mEP^Ephb2-LUC tumor growth [2]: halved
DCX^+ labelling in the SVZ ([3]; four weeks of therapy): returned to control levels
Prom1^+ cell numbers in the SVZ relative to controls ([3]; four weeks of therapy): > 2.5 times
apoptotic labelling in the SVZ ([3]; four weeks of therapy): returned to control levels
number of Prom1^+ cells in the SVZ ([3]; four weeks of therapy): 57.8%
area of DCX^+ neuroblast rests in the SVZ ([3]; two weeks of therapy): 6.0 μm^2 per μm ventricular surfac
number of Prom1^+ cells in the SVZ ([3]; two weeks of therapy): 39.2%
number of apoptotic cells in the SVZ ([3]; two weeks of therapy): 22.2±5.1

CCc1c2c(nc3ccc(OC(=O)N4CCC(N5CCCCC5)CC4)cc13)-c1cc3c(c(=O)n1C2)COC(=O)[C@]3(O)CC [irinotecan]
activity against mEP^Ephb2 cells in HTS [1]: Neither carboplatin nor irinotecan were active

C/C=C(\C)C(=O)O[C@H]1[C@H](OC(C)=O)[C@@]2(CO)C(CC1(C)C)C1=CC[C@@H]3[C@@]4(C)CC[C@H](O[C@@H]5O[C@H](C(=O)O)[C@@H](O[C@@H]6O[C@H](CO)[C@@H](O)[C@H](O)[C@H]6O)[C@H](O)[C@H]5O[C@@H]5O[C@H](CO)[C@@H](O)[C@H](O)[C@H]5O)[C@H](CO)C4CC[C@@]3(C)[C@@]1(C)C[C@H]2O (stereo partly drawn) [beta-escin]
cell-selective activity class in HTS [4]: ependymoma selective

COc1cc2c(cc1Nc1nc(Nc3ccsc3C(N)=O)c3cc[nH]c3n1)N(C(=O)CN(C)C)CCC2 [GSK2110236A]
activity against mEP^Ephb2 cells in HTS [1]: potent inhibitor
IGF1R and its downstream signal [5]: blocked

CC[C@@]1(O)C(=O)OCc2c1cc1n(c2=O)Cc2cc3c(CN(C)C)c(O)ccc3nc2-1 [topotecan]
pEC50 ([4]; Mus musculus, 96 h): 6.15 to 6.70
cell-selective activity class in HTS [4]: equipotent

O=c1[nH]cc(F)c(=O)[nH]1 [5-FU, 5-fluorouracil]
time the tumor concentration was maintained ([6]; 13 mg/kg/hour via Alzet pumps, ~10 μM): over 24 hours
time brain tumor concentration remained above 10μM ([6]; intravenous bolus 75 mg/kg): approximately 1 hour
peak concentration in brain tumors ([6]; intravenous bolus 75 mg/kg, microdialysis, ±79 S.D.): 800 µM
tumor drug levels ([6]; subcutaneous infusion 1.03 mg/kg/hour): failed to generate detectable tumor drug levels
survival of mice harbouring mEP^Ephb2-LUC tumors [2]: significantly prolonged
rate of mEP^Ephb2-LUC tumor growth [2]: halved
activity against mEP^Ephb2-LUC brain tumors ([2]; delivered subcutaneously via Alzet pumps): inactive
DCX^+ labelling in the SVZ ([3]; four weeks of therapy): returned to control levels
apoptotic labelling in the SVZ ([3]; four weeks of therapy): returned to control levels
area of DCX^+ neuroblast rests in the SVZ ([3]; two weeks of therapy): 2.2 μm^2 per μm ventricular surfac
number of Prom1^+ cells in the SVZ ([3]; two weeks of therapy): 35.1%
number of apoptotic cells in the SVZ ([3]; two weeks of therapy): 12.0±1.7
weight loss [7]: ≥ 20%

N.N.O=C([O-])C1(C(=O)[O-])CCC1.[Pt+2] [carboplatin]
activity against mEP^Ephb2 cells in HTS [1]: Neither carboplatin nor irinotecan were active

CS(=O)(=O)CCNCc1ccc(-c2ccc3ncnc(Nc4ccc(OCc5cccc(F)c5)c(Cl)c4)c3c2)o1 [lapatinib]
activity against mEP^Ephb2 cells in HTS [1]: inactive
